# Assay results published in US6033913A, “Detection of ligand Interaction with polymeric material” (New York University, priority 1997, dated 2000).
# Assays:
# [1] = target: T1, concanavalin A (Canavalia ensiformis, UniProt P02866); assay: biochemical; format: binding; parameters: purchased Sigma, St. Louis, Mo; settings: for tension change on removal of divalent cations: buffer 1 exchanged for buffer 2 (without MnCl2 and CaCl2, both removed together)
# From the text: (§1) Referring again to FIGS. 4 and 5: With a sample strip S mounted between the tips of the arms 148, 168, and reference solution L flowing in the well 210, mechanochemical testing of the sample S is ready to begin. Testing itself consists of two stages. In the first (preparative) stage, the strip is stretched until a maximum spring constant of the strip is obtained, and then is allowed to relax under isometric conditions until a constant level of isometric tension is reached. Isometric condition herein means keeping a fixed distance between tips of the arms 148 and 146. In the second stage relaxed strip is brought into contact with ligand solution and ligand-induced changes of the isometric tension and spring constant are measured.
# At the testing stage, ligand-induced changes in F and κ are measured after an exchange in the flow cell of reference solution for that containing ligands. These parameters by themselves can be used to detect binding. However, they also allow estimation of a practically important parameter: ligand-induced strain, εL=(L-L1)/L0, where L1 is the length of the sample in the ligand solution when no force is applied. This can also be calculated by the formula
# Ligands are added at the moment indicated by arrows in FIGS. 12, 14, and 16.
# A strip of concanavalin A, (Sigma, St. Louis, Mo.) was prepared as described in Example 1 for hexokinase, mounted on the arms 148, 146 and extended by 1.2% in buffer 1 (10 mM HEPES buffer, pH=7.5, containing 0.1 M NaCl and 0.1 mM MnCl2 and CaCl2 each). After relaxation solutions with 0.25 mM, 1.25 mM, 5 mM and 10 mM of methyl-α-D-mannopyranoside (MP) on the same buffer 1 were introduced into the well 210 at the moments indicated by arrows in the FIG. 14.
# [2] = test system: yeast hexokinase; assay: Mechanochemical test of yeast hexokinase film with glucose (isometric tension and compliance); format: binding
# From the text: as §1
# Spring constant is measured by applying small deformations to the strip with an amplitude AL much smaller than (L-L0). These deformations cause tension oscillations with amplitude of ΔF. […]
# At the testing stage, ligand-induced changes in F and κ are measured after an exchange in the flow cell of reference solution for that containing ligands. […] This can also be calculated by the formula
# A film of yeast hexokinase (Sigma Chemical Company, St. Louis, Mo.) was prepared. […] Changes in elasticity and isometric tension in the sample were measured at the moments indicated by arrows and changes in tension and in modulus resulted from such exchange of solutions were measured. […]
# [3] = target: T1, concanavalin A; settings: as compared to MP; Biochem. Biophys. Acta, 165:398 (1968); cited from earlier work
smiles,measurement,setting,value
"CO[C@H]1O[C@H](CO)[C@@H](O)[C@H](O)[C@@H]1O [MP, methyl-α-D-mannopyranoside]",Kd,[1],300 µM
same,tension change on ligand addition without divalent cations,[1]; 10 mM MP in buffer 2,"reversible drop of tension by ΔF2, similar to the effect, ΔF1, in buffer 1"
same,isometric tension change on ligand addition,"[1]; buffer 1, 0.25, 1.25, 5 and 10 mM MP",reduce progressively the isometric tension
same,reversibility of MP-induced decrease in tension,[1]; return to buffer 1,completely reversible
O=C(O)CN(CCN(CC(=O)O)CC(=O)O)CC(=O)O [EDTA],tension change on addition of EDTA,[1],reduces tension still more
same,tension change on introduction of EDTA-free buffer 2 after EDTA,[1],does not affect tension
"[Ca+2].[Cl-].[Cl-] [CaC12, CaCl2]",tension change on removal of divalent cations,[1],considerable decrease of tension
OC[C@H]1OC(O)[C@H](O)[C@@H](O)[C@@H]1O (stereo partly drawn) [glucose],inverse tension changes against inverse glucose concentration,"[2]; Lineweaver-Burk plot, FIG. 13",linear relationship
same,changes in isometric tension and compliance,"[2]; hexokinase film strip, varying glucose concentration, 10 mM HEPES, pH=7.5, 0.1 NaCl, extended 2.8%",large but reversible changes
same,ability of binding concanavalin A compared to MP,[3],much lower ability of binding concanavalin A
same,tension change on introduction of glucose,[1]; 5 mM glucose,very small tension changes
[Cl][Mn][Cl] [MnCl2],tension change on removal of divalent cations,[1],considerable decrease of tension
